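Cells were grown in 96-well plates and exposed to each compound for 48 hours at five concentrations; endpoints were interpolated linearly between bracketing concentrations, or set to the highest concentration if not reached. GI50: concentration for 50% inhibition of growth.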 Active and inactive are the calls of the source. No stated cut-off is given here; in the data, active = GI50 up to about 1.1 µM and inactive = higher.
Assays:
Assay in all cases: inhibition of tumour cell growth, NCI panel, 48 h
[1] = system: SNB-19
[2] = system: M14
[3] = system: SF-268
[4] = system: DMS-273
[5] = system: K562
[6] = system: OVCAR-3
[7] = system: SW-620
[8] = system: UACC-257
[9] = system: Malme-3M
[10] = system: HL-60
[11] = system: SF-295
[12] = system: UO-31
[13] = system: A549
[14] = system: SK-MEL-2
[15] = system: CCRF-CEM
[16] = system: DMS-114
[17] = system: LXFL 529
[18] = system: DLD-1
[19] = system: A498
[20] = system: HCC 2998
[21] = system: SF-539
[22] = system: HCT-15
[23] = system: KM12
[24] = system: OVCAR-4
[25] = system: SK-MEL-28
[26] = system: OVCAR-5
[27] = system: UACC-62
[28] = system: U-251
[29] = system: COLO 205
[30] = system: KM-20L2
[31] = system: SK-MEL-5
[32] = system: NCI-H522
[33] = system: SN12C
[34] = system: HCT-116
[35] = system: HOP-62
[36] = system: TK-10
[37] = system: SK-OV-3
[38] = system: HOP-92
[39] = system: MOLT-4
[40] = system: NCI-H226
[41] = system: ACHN
[42] = system: LOX IMVI
[43] = system: SR
[44] = system: 786-0
[45] = system: IGROV-1
[46] = system: EKVX
[47] = system: HOP-18
[48] = system: SNB-75
[49] = system: CAKI-1
[50] = system: SNB-78
[51] = system: HT-29
[52] = system: OVCAR-8
[53] = system: NCI-H23
[54] = system: RXF 393
[55] = system: XF498
[56] = system: NCI-H460

With `C1COCCSC2=C(SCCO1)SC(=C1SC3=C(SCCOCCOCCS3)S1)S2` the GI50 [1] was 73.8 µM (inactive), the GI50 [2] was > 100 µM (inactive) and the GI50 [3] was 51.1 µM (inactive). The GI50 [4] was > 100 µM (inactive), the GI50 [5] was > 100 µM (inactive) and the GI50 [6] was > 100 µM (inactive). The GI50 [7] was > 100 µM (inactive), the GI50 [8] was > 100 µM (inactive) and the GI50 [9] was 98.9 µM (inactive). For the same compound, the GI50 [10] was > 100 µM (inactive), the GI50 [11] was 50.9 µM (inactive) and the GI50 [12] was > 100 µM (inactive). For the same compound, the GI50 [13] was > 100 µM (inactive), the GI50 [14] was 84.3 µM (inactive) and the GI50 [15] was > 100 µM (inactive). The GI50 [16] was 63.5 µM (inactive), the GI50 [17] was > 100 µM (inactive) and the GI50 [18] was > 100 µM (inactive). The GI50 [19] was > 100 µM (inactive), the GI50 [20] was > 100 µM (inactive) and the GI50 [21] was 34.5 µM (inactive). For the same compound, the GI50 [22] was > 100 µM, the GI50 [23] was > 100 µM (inactive) and the GI50 [24] was 48.2 µM (inactive). For the same compound, the GI50 [25] was > 100 µM (inactive), the GI50 [26] was > 100 µM (inactive) and the GI50 [27] was > 100 µM (inactive). The GI50 [28] was 49.2 µM (inactive), the GI50 [29] was > 100 µM (inactive) and the GI50 [30] was > 100 µM (inactive). For the same compound, the GI50 [31] was > 100 µM (inactive), the GI50 [32] was 36.2 µM (inactive) and the GI50 [33] was > 100 µM (inactive). The GI50 [34] was > 100 µM (inactive), the GI50 [35] was 82.2 µM (inactive) and the GI50 [36] was > 100 µM (inactive). For the same compound, the GI50 [37] was 72.1 µM (inactive), the GI50 [38] was 44.7 µM (inactive) and the GI50 [39] was > 100 µM (inactive). The GI50 [40] was > 100 µM (inactive), the GI50 [41] was > 100 µM (inactive) and the GI50 [42] was > 100 µM (inactive). The GI50 [43] was 66.4 µM (inactive), the GI50 [44] was 45.8 µM (inactive) and the GI50 [45] was > 100 µM (inactive). The GI50 [46] was > 100 µM (inactive), the GI50 [47] was > 100 µM (inactive) and the GI50 [48] was 21.7 µM (inactive). The GI50 [49] was > 100 µM (inactive), the GI50 [50] was 38 µM (inactive) and the GI50 [51] was > 100 µM (inactive). For the same compound, the GI50 [52] was 53.5 µM (inactive), the GI50 [53] was > 100 µM (inactive) and the GI50 [54] was 32.8 µM (inactive). For the same compound, the GI50 [55] was 28.6 µM (inactive) and the GI50 [56] was 96.4 µM (inactive).

From ChEMBL document CHEMBL1201862, “PubChem BioAssay data set” (2004)
